Assay results taken from patent US20230329236A1, “HERBICIDAL PYRIMIDINE DERIVATIVES” (MoA Technology Limited, priority 2020, published 2023).

Assays:
[1] = system: Lolium multiflorum (LOLMU); experiment: Post-emergence glasshouse test, visual injury, LOLMU; assay type: in vivo; settings: 336 h, 14±1 days post application
How it was run: (§1)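 Post-emerg. spray, BBCH 12-14; acetone/water 50:50 + 0.5% Tween 20; rate as g a.i./ha. Glasshouse, sandy loam soil. Read: % visual injury vs untreated, 14±1 d after application.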

[2] = system: Echinochloa crus-gaffi (ECHCG); experiment: Post-emergence glasshouse test, visual injury, ECHCG; assay type: in vivo, Echinochloa crus-galli; settings: 336 h, 14±1 days post application
How it was run: as §1

Veronica persica (VERPE) = experiment: Post-emergence glasshouse test, visual injury, VERPE; assay type: in vivo; settings: 336 h, 14±1 days post application
How it was run: as §1

[3] = system: Amaranthus retroflexus (AMARE); experiment: Post-emergence glasshouse test, visual injury, AMARE; assay type: in vivo; settings: 336 h, 14±1 days post application
How it was run: as §1

Glycine max (GLXMA) = experiment: Post-emergence glasshouse test, visual injury, GLXMA; assay type: in vivo; settings: Table 4, post-emergence, 14±1 days post application
Method: (§2) Seeds of a variety of test species are grown in a sandy loam soil mixture, Lolium multiflorum (LOLMU), Amaranthus retroflexus (AMARE), Echinochloa crus-gaffi (ECHCG), Veronica persica (VERPE), Glycine max (GLXMA), Oryza sativa (ORYSA), Zea mays (ZEAMX), spring wheat (TRZAS), Ipomoea hederacea (IPOHE), Ipomoea purpurea (PHBPU), Stellaria media (STEME), Solanum nigrum (SOLNI), Digitaria sanguinalis (DIGSA), Setaria italica (SETIT), Alopecurus myosuroides (ALOMY) and Avena fatua (AVEFA).
(§3) After sowing, at growth stage BBCH 12-14 (post-emergence), the plants are sprayed with an aqueous spray solution derived from the formulation of the technical active ingredient in acetone/water (50:50) solution containing 0.5% Tween 20 (polyoxyethlyene sorbitan monolaureate, CAS RN 9005-64-5). The test compounds are applied at the required concentration of active ingredient in g/ha. The test plants are then grown in a glasshouse under controlled environmental conditions and watered regularly as required. After 14±1 days post application (for post-emergence test), the test is evaluated by assessing the percentage damage caused to the plants in comparison with the untreated plots. The biological activities for post-emergence testing are shown below (Table 3 and Table 4) as a % visual injury.

Oryza sativa (ORYSA) = experiment: Post-emergence glasshouse test, visual injury, ORYSA; assay type: in vivo; settings: Table 4, post-emergence, 14±1 days post application
Method: as §2, §3

Zea mays (ZEAMX) = experiment: Post-emergence glasshouse test, visual injury, ZEAMX; assay type: in vivo; settings: Table 4, post-emergence, 14±1 days post application
Method: as §2, §3

spring wheat (TRZAS) = experiment: Post-emergence glasshouse test, visual injury, TRZAS; assay type: in vivo; settings: Table 4, post-emergence, 14±1 days post application
Method: as §2, §3

[4] = system: Ipomoea hederacea (IPOHE); experiment: Post-emergence glasshouse test, visual injury, IPOHE; assay type: in vivo; settings: Table 4, post-emergence, 14±1 days post application
Method: as §2, §3

Stellaria media (STEME) = experiment: Post-emergence glasshouse test, visual injury, STEME; assay type: in vivo; settings: Table 4, post-emergence, 14±1 days post application
Method: as §2, §3

Ipomoea purpurea (PHBPU) = experiment: Post-emergence glasshouse test, visual injury, PHBPU; assay type: in vivo; settings: Table 4, post-emergence, 14±1 days post application
Method: as §2, §3

Solanum nigrum (SOLNI) = experiment: Post-emergence glasshouse test, visual injury, SOLNI; assay type: in vivo; settings: Table 4, post-emergence, 14±1 days post application
Method: as §2, §3

[5] = system: Digitaria sanguinalis (DIGSA); experiment: Post-emergence glasshouse test, visual injury, DIGSA; assay type: in vivo; settings: Table 4, post-emergence, 14±1 days post application
Method: as §2, §3

Setaria italica (SETIT) = experiment: Post-emergence glasshouse test, visual injury, SETIT; assay type: in vivo; settings: Table 4, post-emergence, 14±1 days post application
Method: as §2, §3

[6] = system: Alopecurus myosuroides (ALOMY); experiment: Post-emergence glasshouse test, visual injury, ALOMY; assay type: in vivo; settings: Table 4, post-emergence, 14±1 days post application
Method: as §2, §3

Avena fatua (AVEFA) = experiment: Post-emergence glasshouse test, visual injury, AVEFA; assay type: in vivo; settings: Table 4, post-emergence, 14±1 days post application
Method: as §2, §3

[7] = Table 4, post-emergence, 250 g/ha
[8] = Table 4, post-emergence, 1000 g/ha

Cc1cc(-c2cnc(NCc3ccncc3)nc2C2CC2)on1 [Compound 20]
pest or weed control at 500 g/ha ([1]; Table 3, post-emergence): 0% | pest or weed control at 500 g/ha ([2]; Table 3, post-emergence): 0% | pest or weed control at 500 g/ha (Veronica persica (VERPE); Table 3, post-emergence): 30% | pest or weed control at 125 g/ha (Veronica persica (VERPE); Table 4, post-emergence): 50% | pest or weed control at 250 g/ha (Veronica persica (VERPE); Table 4, post-emergence): 60% | pest or weed control at 500 g/ha (Veronica persica (VERPE); Table 4, post-emergence): 70% | pest or weed control at 1000 g/ha (Veronica persica (VERPE); Table 4, post-emergence): 90% | pest or weed control at 500 g/ha ([3]; Table 3, post-emergence): 80% | pest or weed control at 125 g/ha ([3]; Table 4, post-emergence): 0% | pest or weed control at 250 g/ha ([3]; Table 4, post-emergence): 0% | pest or weed control at 500 g/ha ([3]; Table 4, post-emergence): 50% | pest or weed control at 1000 g/ha ([3]; Table 4, post-emergence): 90% | GLXMA % visual injury (Glycine max (GLXMA); 125 g/ha): 30% | GLXMA % visual injury (Glycine max (GLXMA); 250 g/ha): 20% | GLXMA % visual injury (Glycine max (GLXMA); 500 g/ha): 40% | GLXMA % visual injury (Glycine max (GLXMA); 1000 g/ha): 50% | ORYSA % visual injury (Oryza sativa (ORYSA); 125 g/ha): 50% | ORYSA % visual injury (Oryza sativa (ORYSA); 250 g/ha): 60% | ORYSA % visual injury (Oryza sativa (ORYSA); 500 g/ha): 30% | ORYSA % visual injury (Oryza sativa (ORYSA); 1000 g/ha): 60% | ZEAMX % visual injury (Zea mays (ZEAMX); 125 g/ha): 20% | ZEAMX % visual injury (Zea mays (ZEAMX); 250 g/ha): 50% | ZEAMX % visual injury (Zea mays (ZEAMX); 500 g/ha): 50% | ZEAMX % visual injury (Zea mays (ZEAMX); 1000 g/ha): 40% | TRZAS % visual injury (spring wheat (TRZAS); 125 g/ha): 0% | TRZAS % visual injury (spring wheat (TRZAS); 250 g/ha): 0% | TRZAS % visual injury (spring wheat (TRZAS); 500 g/ha): 30% | TRZAS % visual injury (spring wheat (TRZAS); 1000 g/ha): 20% | IPOHE % visual injury ([4]; 125 g/ha): 0% | IPOHE % visual injury ([4]; 250 g/ha): 0% | IPOHE % visual injury ([4]; 500 g/ha): 0% | IPOHE % visual injury ([4]; 1000 g/ha): 30% | STEME % visual injury (Stellaria media (STEME); 125 g/ha): 0% | STEME % visual injury (Stellaria media (STEME); 250 g/ha): 30% | STEME % visual injury (Stellaria media (STEME); 500 g/ha): 40% | STEME % visual injury (Stellaria media (STEME); 1000 g/ha): 95%

Cc1cc(-c2cnc(NC3CCCC3)nc2C(C)C)on1 [Compound 45]
pest or weed control at 500 g/ha ([1]; Table 3, post-emergence): 70% | pest or weed control at 125 g/ha ([1]; Table 4, post-emergence): 40% | pest or weed control at 250 g/ha [1, 7]: 60% | pest or weed control at 500 g/ha ([1]; Table 4, post-emergence): 90% | pest or weed control at 1000 g/ha [1, 8]: 100% | pest or weed control at 500 g/ha ([2]; Table 3, post-emergence): 100% | pest or weed control at 125 g/ha ([2]; Table 4, post-emergence): 70% | pest or weed control at 250 g/ha [2, 7]: 80% | pest or weed control at 500 g/ha ([2]; Table 4, post-emergence): 80% | pest or weed control at 1000 g/ha [2, 8]: 90% | pest or weed control at 500 g/ha (Veronica persica (VERPE); Table 3, post-emergence): 100% | pest or weed control at 125 g/ha (Veronica persica (VERPE); Table 4, post-emergence): 100% | pest or weed control at 250 g/ha (Veronica persica (VERPE); Table 4, post-emergence): 100% | pest or weed control at 500 g/ha (Veronica persica (VERPE); Table 4, post-emergence): 100% | pest or weed control at 1000 g/ha (Veronica persica (VERPE); Table 4, post-emergence): 100% | pest or weed control at 500 g/ha ([3]; Table 3, post-emergence): 100% | pest or weed control at 125 g/ha ([3]; Table 4, post-emergence): 95% | pest or weed control at 250 g/ha ([3]; Table 4, post-emergence): 90% | pest or weed control at 500 g/ha ([3]; Table 4, post-emergence): 100% | pest or weed control at 1000 g/ha ([3]; Table 4, post-emergence): 100% | GLXMA % visual injury (Glycine max (GLXMA); 125 g/ha): 20% | GLXMA % visual injury (Glycine max (GLXMA); 250 g/ha): 50% | GLXMA % visual injury (Glycine max (GLXMA); 500 g/ha): 40% | GLXMA % visual injury (Glycine max (GLXMA); 1000 g/ha): 50% | ORYSA % visual injury (Oryza sativa (ORYSA); 125 g/ha): 50% | ORYSA % visual injury (Oryza sativa (ORYSA); 250 g/ha): 99% | ORYSA % visual injury (Oryza sativa (ORYSA); 500 g/ha): 90% | ORYSA % visual injury (Oryza sativa (ORYSA); 1000 g/ha): 80% | ZEAMX % visual injury (Zea mays (ZEAMX); 125 g/ha): 0% | ZEAMX % visual injury (Zea mays (ZEAMX); 250 g/ha): 0% | ZEAMX % visual injury (Zea mays (ZEAMX); 500 g/ha): 70% | ZEAMX % visual injury (Zea mays (ZEAMX); 1000 g/ha): 40% | TRZAS % visual injury (spring wheat (TRZAS); 125 g/ha): 0% | TRZAS % visual injury (spring wheat (TRZAS); 250 g/ha): 30% | TRZAS % visual injury (spring wheat (TRZAS); 500 g/ha): 30% | TRZAS % visual injury (spring wheat (TRZAS); 1000 g/ha): 40% | IPOHE % visual injury ([4]; 125 g/ha): 0% | IPOHE % visual injury ([4]; 250 g/ha): 50% | IPOHE % visual injury ([4]; 500 g/ha): 40% | IPOHE % visual injury ([4]; 1000 g/ha): 60% | PHBPU % visual injury (Ipomoea purpurea (PHBPU); 125 g/ha): 50% | PHBPU % visual injury (Ipomoea purpurea (PHBPU); 250 g/ha): 70% | PHBPU % visual injury (Ipomoea purpurea (PHBPU); 500 g/ha): 70% | PHBPU % visual injury (Ipomoea purpurea (PHBPU); 1000 g/ha): 70% | STEME % visual injury (Stellaria media (STEME); 125 g/ha): 100% | STEME % visual injury (Stellaria media (STEME); 250 g/ha): 100% | STEME % visual injury (Stellaria media (STEME); 500 g/ha): 100% | STEME % visual injury (Stellaria media (STEME); 1000 g/ha): 100% | SOLNI % visual injury (Solanum nigrum (SOLNI); 125 g/ha): 98% | SOLNI % visual injury (Solanum nigrum (SOLNI); 250 g/ha): 100% | SOLNI % visual injury (Solanum nigrum (SOLNI); 500 g/ha): 100% | SOLNI % visual injury (Solanum nigrum (SOLNI); 1000 g/ha): 100% | DIGSA % visual injury ([5]; 125 g/ha): 80% | DIGSA % visual injury ([5]; 250 g/ha): 70% | DIGSA % visual injury ([5]; 500 g/ha): 95% | DIGSA % visual injury ([5]; 1000 g/ha): 98% | SETIT % visual injury (Setaria italica (SETIT); 125 g/ha): 50% | SETIT % visual injury (Setaria italica (SETIT); 250 g/ha): 80% | SETIT % visual injury (Setaria italica (SETIT); 500 g/ha): 95% | SETIT % visual injury (Setaria italica (SETIT); 1000 g/ha): 95% | ALOMY % visual injury ([6]; 125 g/ha): 50% | ALOMY % visual injury ([6]; 250 g/ha): 70% | ALOMY % visual injury ([6]; 500 g/ha): 50% | ALOMY % visual injury ([6]; 1000 g/ha): 80% | AVEFA % visual injury (Avena fatua (AVEFA); 125 g/ha): 0% | AVEFA % visual injury (Avena fatua (AVEFA); 250 g/ha): 40% | AVEFA % visual injury (Avena fatua (AVEFA); 500 g/ha): 60% | AVEFA % visual injury (Avena fatua (AVEFA); 1000 g/ha): 70%

CCc1nc(NCc2ccc(F)cc2)ncc1-c1cc(C)no1 [Compound 106]
pest or weed control at 125 g/ha ([1]; Table 3, post-emergence): 0% | pest or weed control at 125 g/ha ([2]; Table 3, post-emergence): 30% | pest or weed control at 125 g/ha (Veronica persica (VERPE); Table 3, post-emergence): 95% | pest or weed control at 125 g/ha ([3]; Table 3, post-emergence): 90%

COc1ccc(CNc2ncc(-c3cc(C)no3)c(C3CC3)n2)cc1OC [Compound 52]
pest or weed control at 500 g/ha ([1]; Table 3, post-emergence): 40% | pest or weed control at 500 g/ha ([2]; Table 3, post-emergence): 70% | pest or weed control at 500 g/ha (Veronica persica (VERPE); Table 3, post-emergence): 70% | pest or weed control at 500 g/ha ([3]; Table 3, post-emergence): 80%
